Data: article PMC11288129, “Diversely evolved xibalbin variants from remipede venom inhibit potassium channels and activate PKA-II and Erk1/2 signaling” (BMC Biology, 2024)
“Also recorded” adds a separate entry of the source. Positions of bridges follow the written chain, without caps; N, C: chain ends. No end group written: not given here.

Key:
Kv1.3 = experiment: TEVC inhibition, Kv1.3; assay type: cell-based, human; set-up: unit not given here; details: 1 µM
Description: (§1) For the expression of Kv channels rat Kv1.1 (GenBank accession number: NM_173095 [88, 89]), rKv1.2 (NM_012970 [90, 91]), human Kv1.3 (NM_002232 [92, 93]), rKv1.4 (NM_012971 [94, 95]), rKv1.6 (NM_023954 [96, 97]), hKv2.1 (NM_004975 [98, 99]), hKv3.1 (NM_004976 [100, 101]), rKv4.2 (NM_031739 [102, 103]), hKv10.1 (NM_172362 [104, 105]), hERG1 [Kv11.1, (NM_000238 [106, 107])], and Shaker IR [from Drosophila melanogaster, (NM_167595 [108, 109])], Nav channels [rNav1.2 (NM_012647 [42, 110]), rNav1.4 (NM_013178 [111, 112]), hNav1.5 (NM_198056 [113, 114]), mNav1.6 (NM_001077499 [115, 116]), BgNav [from Blattella germanica, (DQ466887 [117, 118])] and the auxiliary subunits rβ1 (NM_001271045 [119, 120]), hβ1 (NM_001037 [121, 122]), and TipE [from D. melanogaster, (NM_079196 [109, 123])], and Cav channels hCav3.1 [124, 125], hCav3.2 [126, 127], and hCav3.3 [128, 129] in Xenopus oocytes, the linearized plasmids were transcribed using the T7 or SP6 mMESSAGEmMACHINE transcription kit (Ambion, Austin, TX, USA). Mature female animals were purchased from Nasco (Fort Atkinson, USA) and were housed in the Aquatic Facility (KU Leuven) in compliance with the regulations of the European Union (EU) concerning the welfare of laboratory animals as declared in Directive 2010/63/EU. The use of X. laevis oocytes was approved by the Animal Ethics Committee of the KU Leuven with the license number P186/2019. Stage V–VI oocytes were collected from anesthetized female X. laevis frog as previously described, with the frogs anesthetized by placement in 0.1% tricaine solution (amino benzoic acid ethyl ester; Merck, USA). Oocyte microinjection was performed using a microinjector (Drummond Scientifc®, USA), with a programmed cRNA injection volume of 4—50 nL, depending on the channel subtype. The oocytes were incubated in ND96 solution (96 mM NaCl, 2 mM KCl, 1.8 mM CaCl2, 2 mM MgCl2, and 5 mM HEPES, pH 7.4), supplemented with 50 mg/l gentamicin sulfate.
(§2) Electrophysiological measurements were performed at room temperature (18–22 °C) using the two-electrode voltage clamp (TEVC) technique. Data were obtained using a GeneClamp 500 amplifier (Axon Instruments, USA), and Clampex9 software (Axon Instruments), responsible for data acquisition and storage. Glass micropipettes were produced using glass capillaries (borosilicate WPI 1B120-6) and drawn in a WPI (World Precision Instruments, USA) manual stretcher. The bath and perfusion solutions were either the previously described ND96 (Nav and Kv channels) or calcium-free ND96 supplemented with 10 mM BaCl2 (Cav channels).
(§3) Whole-cell currents of oocytes were recorded 1 to 3 days after injection. Current and voltage electrodes were filled with 3 M KCl and their resistance was adjusted from 0.7 to 2.0 MΩ. Currents were sampled at 20 kHz (Nav channels) and 10 kHz (Kv and Cav channels) and filtered using a four-pole Bessel low-pass Bessel filter, at 1 kHz for sodium, and […] for potassium and calcium, except for the hERG ion channel, in which the currents were filtered at 1 kHz. Leak subtraction was performed using a -P/4 protocol. Kv1.x currents were evoked by 500 ms depolarizations to 0 mV followed by a 500-ms pulse to − 50 mV, from a holding potential of − 90 mV. Kv2.1, Kv3.1, and Kv4.2 currents were elicited by 500 ms pulses to + 20 mV from a holding potential of − 90 mV. Current traces of Kv10.1 were elicited by 2 s depolarization to 0 mV, from a holding potential of − 90 mV. Current traces of hERG1 channel were elicited by applying a + 40 mV prepulse for 2 s followed by a step of − 120 mV for 2 s. Sodium current traces were evoked by a 100 ms depolarization to 0 mV, from a holding potential of − 90 mV. The current–voltage (IV) relationships were determined by 100-ms step depolarizations between − 90 and + 40 mV, using 5 mV increments. […]

mNav1.6 [1] = experiment: TEVC inhibition, Nav1.6; assay type: cell-based, mouse; details: 1 µM, Xenopus oocytes, ND96, 18–22 °C, mean ± SEM, n ≥ 3
Description: (§4) For the expression of Kv channels rat Kv1.1 (GenBank accession number: NM_173095 [88, 89]), rKv1.2 (NM_012970 [90, 91]), human Kv1.3 (NM_002232 [92, 93]), rKv1.4 (NM_012971 [94, 95]), rKv1.6 (NM_023954 [96, 97]), hKv2.1 (NM_004975 [98, 99]), hKv3.1 (NM_004976 [100, 101]), rKv4.2 (NM_031739 [102, 103]), hKv10.1 (NM_172362 [104, 105]), hERG1 [Kv11.1, (NM_000238 [106, 107])], and Shaker IR [from Drosophila melanogaster, (NM_167595 [108, 109])], Nav channels [rNav1.2 (NM_012647 [42, 110]), rNav1.4 (NM_013178 [111, 112]), hNav1.5 (NM_198056 [113, 114]), mNav1.6 (NM_001077499 [115, 116]), BgNav [from Blattella germanica, (DQ466887 [117, 118])] and the auxiliary subunits rβ1 (NM_001271045 [119, 120]), hβ1 (NM_001037 [121, 122]), and TipE [from D. melanogaster, (NM_079196 [109, 123])], and Cav channels hCav3.1 [124, 125], hCav3.2 [126, 127], and hCav3.3 [128, 129] in Xenopus oocytes, the linearized plasmids were transcribed using the T7 or SP6 mMESSAGEmMACHINE transcription kit (Ambion, Austin, TX, USA). […]
(§5) Whole-cell currents of oocytes were recorded 1 to 3 days after injection. […] The current–voltage (IV) relationships were determined by 100-ms step depolarizations between − 90 and + 40 mV, using 5 mV increments. […]

[2] = system: voltage-gated sodium channels (Nav); experiment: TEVC on panel of voltage-gated sodium channels; assay type: cell-based; details: 1 µM
Description: as §4, §5

hNav1.5 = experiment: TEVC inhibition, Nav1.5; assay type: cell-based, human; details: 1 µM, Xenopus oocytes, ND96, 18–22 °C, mean ± SEM, n ≥ 3
Description: as §4, §5

mNav1.6 [3] = experiment: TEVC current-voltage relationship (Vhalf), Nav1.6; assay type: cell-based, mouse; set-up: Vhalf, toxin inactivation, Nav1.6 / Vhalf, toxin activation, Nav1.6: unit not given here; details: for Vhalf activation shift, Nav1.6: 1 µM versus control (ND96); for Vhalf, toxin activation, Nav1.6 / Vhalf, toxin inactivation, Nav1.6: 1 µM
Description: as §1, §2, §3

BgNav = experiment: TEVC inhibition, BgNav; assay type: cell-based, Blattella germanica; set-up: Inhibition data, BgNav: unit not given here; details: 1 µM
Description: as §1, §2, §3

rKv1.2 = experiment: TEVC inhibition, Kv1.2; assay type: cell-based, rat; details: 1 µM
Description: as §1, §2, §3

Sequence | Inhibition data, Kv1.3 (Kv1.3; replicate 1) | Inhibition data, Kv1.3 (Kv1.3; replicate 2) | Inhibition data, Kv1.3 (Kv1.3; replicate 3) | Inhibition data, Kv1.3 (Kv1.3; replicate 4) | inhibition of Nav1.6 (mNav1.6 [1]) [%] | inhibition of voltage-gated sodium channels [2] | inhibition of Nav1.5 (hNav1.5) [%] | Vhalf activation shift, Nav1.6 (mNav1.6 [3]) [mV] | Vhalf, toxin activation, Nav1.6 (mNav1.6 [3]; replicate 1) | Vhalf, toxin inactivation, Nav1.6 (mNav1.6 [3]; replicate 1) | Vhalf, toxin activation, Nav1.6 (mNav1.6 [3]; replicate 2) | Vhalf, toxin inactivation, Nav1.6 (mNav1.6 [3]; replicate 2) | Vhalf, toxin activation, Nav1.6 (mNav1.6 [3]; replicate 3) | Vhalf, toxin inactivation, Nav1.6 (mNav1.6 [3]; replicate 3) | Vhalf, toxin activation, Nav1.6 (mNav1.6 [3]; replicate 4) | Vhalf, toxin inactivation, Nav1.6 (mNav1.6 [3]; replicate 4) | inhibition of BgNav (BgNav) | Inhibition data, BgNav (BgNav; replicate 1) | Inhibition data, BgNav (BgNav; replicate 2) | Inhibition data, BgNav (BgNav; replicate 3) | further results
KRSCIRRFGRCDHRPNDCCYNSSCRCNLWGSNCRCQRMGLFQKWGK (disulfide 4-19, 11-24, 18-35, 26-33) [xib13] | 61.2 | 57.8 | 41.4 | 53.4 | 10.7 ± 0.9 | inhibit voltage-gated sodium channels; also recorded: mild inhibition; also recorded: most significant inhibition rates | 28.2 ± 3.4 | 0.5 | -22.599 | -56.1011 | -28.3204 | -61.4261 | -27.6893 | -56.3883 | -20.1785 | -49.5801 | targeted | 51.7 | 40.6 | 30.9 | Inhibition data, BgNav (BgNav; replicate 4): 44.2; Inhibition data, Kv1.2 (rKv1.2; replicate 1): 58.6; Inhibition data, Kv1.2 (rKv1.2; replicate 2): 71.3; Inhibition data, Kv1.2 (rKv1.2; replicate 3): 77.9
RLFCIRHHKYCGHRPKRCCSGLFCRCNTFGTNCRCQSKGALGKLI (disulfide 4-19, 11-24, 18-35, 26-33) [xib1] | 59.5 | 65.4 | 60.6 | 62.3 | 5.7 ± 1.2 | inhibit voltage-gated sodium channels; also recorded: mild inhibition | 26.1 ± 1.8 | 1.9 | -19.6324 | -54.1984 | -25.3795 | -54.8159 | -25.7195 | -56.7966 | -23.7149 | -53.558 | targeted | 10.1 | 7.7 | 7.6 | Inhibition data, BgNav (BgNav; replicate 4): 7.6; inhibition of Kv1.2 (rKv1.2; Xenopus oocytes, ND96, 18–22 °C, mean ± SEM, n ≥ 3): 50.2 ± 2.6%; Inhibition data, Kv1.2 (rKv1.2; replicate 1): 52.8; Inhibition data, Kv1.2 (rKv1.2; replicate 2): 47.6; Inhibition data, Kv1.2 (rKv1.2; replicate 3): 48.2; Inhibition data, Kv1.2 (rKv1.2; replicate 4): 46.0
